Reference: patent publication US20110269825A1, “Modified Thromboxane A2 Receptor Promoter Sequence” (priority 2008, published 2011)
Several values for one entry are separate records, joined by “and”; a condition that tells them apart may be missing. Equal entries are not always repeated.

What was measured:
Format in all cases: cell-based, human
Sp1 = assay: Immunoblot analysis of Sp1 expression in HEL cells; conditions: PMA 100 nM over 48 h
Method: The expression of WT1, Sp1, Egr1, NF-E2, GATA-1 and Ets-1 proteins in HEL cells was confirmed by western blot analysis. Briefly, whole cell protein was resolved by SDS-PAGE (10% acrylamide gels) and transferred to polyvinylidene difluoride (PVDF) membrane according to standard methodology. Membranes were screened using anti-WT1, anti-NF-E2, anti-Sp1, anti-Egr1, anti-GATA-1 or anti-Ets-1 sera in 5% non fat dried milk in 1×TBS (0.01 M Tris/HCl, 0.1 M NaCl) for 2 h at room temperature followed by washing and screening using goat anti-rabbit horseradish peroxidase (sc-2204) followed by chemiluminescence detection, as described by the supplier (Roche Applied Science). For PMA studies, HEL cells were pre-incubated for the indicated amount of time with 100 nM PMA, with 10 μM PD98059, with 100 nM PMA plus 10 μM PD98059 or, as a control, with vehicle [0.1% (v/v) DMSO]. Whole cell protein (60 μg per lane) was resolved by SDS-PAGE (10% acrylamide gels) and transferred to polyvinylidene difluoride (PVDF) membrane according to standard methodology. […] Cells were harvested 48 hr post-transfection and aliquots ([…]) were analysed by SDS-PAGE/western blot analysis. As a positive control for hTF expression, […] of a commercial control Tissue-Factor Biomass was also analysed. […]

[1] = tested on: Prm1-directed luciferase expression; assay: Effect of PMA, PD98059 or Vitamin D3 on Prm1-directed luciferase expression in HEL cells
Method: HEL and EA.hy 926 cells were co-transfected with the various pGL3Basic-recombinant plasmids (2 mg), encoding firefly luciferase, along with pRL-TK (200 ng), encoding renilla luciferase, using DMRIE-C® transfection reagent. HEK293, WI-38, and 1° hAoSMCs were co-transfected with the pGL3Basic-recombinant plasmids (2 mg), along with pRL-TK (200 ng), using Effectene transfection reagent. In all cases, cells co-transfected with pRL-TK (200 ng) in the presence of either the pGL3Control vector (firefly luciferase gene under the control of the SV40 promoter; 2 mg) or the promoter-less pGL3Basic empty vector (2 mg), which served as positive and negative controls, respectively. […] Relative firefly to renilla luciferase activity (arbitrary units) was calculated as a ratio and was expressed in relative luciferase units (RLU). To investigate the effect of over-expression of exon 5 (+ or −) or KTS (+ or −) isoforms of WT1 on Prm1-directed gene expression, HEL cells were co-transfected with either pGL3b:Prm1 or pGL3b:Prm1D (1.5 μg) plus 200 ng of pRL-TK along with either pcDNA3:WT1 (+/+), pcDNA3:WT1 (+/−), pcDNA3:WT1 (−/+), pcDNA3:WT1 (−/−) (0.5 μg), or as a control, pcDNA3 (0.5 μg). […] The plasmid pCMV5-NAB1, containing the entire coding sequence for NAB1, was generously donated by Dr. Gerald Thiel, University of Saarland Medical Center, Homburg, Germany, and has been described previously (Thiel et al., 2000). To investigate the effect of over-expression of NAB1 on the PMA-mediated induction of Prm1-directed gene expression, HEL cells were transiently co-transfected with pGL3b:Prm1 (2 μg) plus pRL-TK (200 ng) along with either pCMV5 (control) or pCMV:NAB1 (1 μg).

TPα mRNA = assay: RT-PCR and Southern blot analysis of TPα mRNA expression in HEL cells; conditions: PMA 100 nM, 2 to 48 h
Method: Total RNA was isolated from HEL 92.1.7 cells (5×10^6 approximately) using TRIzol reagent (Invitrogen Life Technologies). RT-PCR was carried out with DNase 1-treated total RNA using oligonucleotide primers to specifically amplify TPα and glyceraldehyde-3-phosphate dehydrogenase (GAPDH) mRNA sequences, as previously described (Miggin et al., 1998). The following primers were used: […]
Following agarose gel electrophoresis, PCR products were transferred to Biodyne® B positively-charged nylon membrane (PaII) using standard methodology (Sambrook et al., 1989). Southern blot analysis of the RT-PCR products was carried out using oligonucleotide probes (5′ end-labelled with biotin) specific for TPα (Kin 583: 5′[Btn][…] GAAG3′, SEQ ID NO:80) and GAPDH (Kin 584: 5′[Btn][…]3′, SEQ ID NO:81] mRNA sequences and detection was carried out using the Detector™ HRP Chemiluminescent Blotting Kit (KPL), as described by the manufacturer.

SMILES: CCCCCCCCCCCCCC(=O)O[C@@H]1[C@@H](C)[C@@]2(O)[C@@H](C=C(CO)C[C@]3(O)C(=O)C(C)=C[C@@H]23)[C@@H]2C(C)(C)[C@]12OC(C)=O [PMA, phorbol 12-myristate 13-acetate]
- Sp1 protein expression (Sp1): did not result in appreciable changes in the expression of Sp1
- Time of incubation to significantly increased Prm1-directed luciferase activity ([1]; PMA 100 nM, 0-48 h): ≤ 4 h
- Increase in Prm1-directed luciferase expression ([1]; PMA 100 nM, 16 h, vs vehicle): 4 fold and 4.3 fold
- Effect on luciferase expression directed by the Prm1K sub-fragment ([1]; PMA alone 100 nM, 16 h): neither PMA alone (p=0.4721) nor PMA plus PD98059 (p=0.2693) had any significant effect
- TPα mRNA expression (TPα mRNA): time-dependent, sustained increase in TPα mRNA expression
